From ChEMBL document CHEMBL1201862, “PubChem BioAssay data set” (2004)
Active and inactive are the calls of the source. Where a SMILES comes first, the peptide text is derived from it. Bridges are numbered along the chain shown (N, C = ends). [ ]: non-standard residue; d: D form. The star is where a group is joined. bishTyr = N[C@@H](CCCc1ccc(O)cc1)C(=O)O; Tigloyl = C/C=C(\C)C(=O)*; Dhb = C/C=C(\N)C(=O)O

Tests used:
[1] = molecular target: NAD-dependent protein deacylase sirtuin-5, mitochondrial (Homo sapiens, UniProt Q9NXA8); assay: SIRT5 desuccinylase inhibitors, dose response, biochemical, fluorescence imaging, cherry-pick, set 5 (AID 720591);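 also: desuccinylation of succinyl peptide AMC substrate read as fluorescence after trypsin release; potency of inhibitors that lower fluorescence and may act on trypsin instead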
Sequence of NAD-dependent protein deacylase sirtuin-5, mitochondrial (Q9NXA8 whole entry): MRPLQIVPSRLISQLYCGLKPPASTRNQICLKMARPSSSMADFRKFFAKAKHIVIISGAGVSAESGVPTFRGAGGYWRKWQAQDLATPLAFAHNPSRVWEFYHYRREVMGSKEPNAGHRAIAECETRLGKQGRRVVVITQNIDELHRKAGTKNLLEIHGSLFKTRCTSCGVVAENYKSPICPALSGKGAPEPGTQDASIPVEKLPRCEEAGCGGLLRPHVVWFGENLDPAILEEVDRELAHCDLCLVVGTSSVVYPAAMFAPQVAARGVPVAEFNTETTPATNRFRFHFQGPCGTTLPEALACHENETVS

[2] = molecular target: Ubiquitin carboxyl-terminal hydrolase BAP1 (Homo sapiens, UniProt Q92560); assay: BAP1 deubiquitinase inhibitors, dose response, biochemical (AID 714); assay type: functional
Sequence of Ubiquitin carboxyl-terminal hydrolase BAP1 (Q92560 whole entry): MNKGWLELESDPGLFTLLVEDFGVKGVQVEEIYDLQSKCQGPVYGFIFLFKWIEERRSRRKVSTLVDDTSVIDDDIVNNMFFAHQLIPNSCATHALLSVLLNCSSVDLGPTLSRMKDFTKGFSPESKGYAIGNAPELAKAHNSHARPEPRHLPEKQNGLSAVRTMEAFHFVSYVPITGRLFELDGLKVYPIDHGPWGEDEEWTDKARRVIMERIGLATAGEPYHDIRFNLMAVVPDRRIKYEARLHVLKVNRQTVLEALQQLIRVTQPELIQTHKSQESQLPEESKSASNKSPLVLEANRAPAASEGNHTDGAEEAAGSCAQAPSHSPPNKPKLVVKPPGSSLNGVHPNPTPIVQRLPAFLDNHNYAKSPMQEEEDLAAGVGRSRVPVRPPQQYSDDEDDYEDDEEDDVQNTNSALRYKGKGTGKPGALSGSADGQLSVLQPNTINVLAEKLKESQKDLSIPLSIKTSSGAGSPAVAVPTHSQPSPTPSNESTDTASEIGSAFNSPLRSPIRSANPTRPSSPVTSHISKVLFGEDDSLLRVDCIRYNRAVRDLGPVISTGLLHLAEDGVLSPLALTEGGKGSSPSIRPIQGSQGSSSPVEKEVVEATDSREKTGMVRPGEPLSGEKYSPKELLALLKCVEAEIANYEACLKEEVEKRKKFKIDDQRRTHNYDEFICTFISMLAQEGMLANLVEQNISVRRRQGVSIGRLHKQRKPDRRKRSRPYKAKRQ

Genome polyprotein = Genome polyprotein (Hepatitis C virus, UniProt Q2Q167); assay: HCV core protein dimerization inhibitors, dose response, biochemical, TR-FRET (AID 2159); set-up: species or system Hepacivirus hominis;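 also: blocks dimerization of HCV core protein measured by TR-FRET between tagged core106 pairs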
Sequence of Genome polyprotein (Q2Q167 whole entry): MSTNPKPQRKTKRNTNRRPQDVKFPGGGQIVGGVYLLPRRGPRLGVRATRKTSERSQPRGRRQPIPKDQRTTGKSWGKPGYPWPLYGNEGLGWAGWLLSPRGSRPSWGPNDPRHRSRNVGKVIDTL

[3] = HCT116 cell viability decrease, GSK3B pretreatment – CellTiter-Glo, IC50, dose response (AID 1117339); assay type: functional; details: HCT-116
[4] = cytotoxicity toward HT-29 cells – cell-based, CellTiter-Glo luminescence, IC50, dose response (AID 1117330); assay type: functional
[5] = CellTiter-Glo luminescent dose response of DLD-1 viability loss (AID 1117352); assay type: functional
[6] = RKO cell viability reduction, dose response, CellTiter-Glo luminescence (AID 1117322); assay type: functional
[7] = Concentration-dependent survival of SW480 colon cancer line, luminescence detection with CellTiter-Glo, half-maximal inhibitory concentration (AID 1117338); assay type: functional
[8] = cytotoxicity toward Colo320 cells – cell-based, CellTiter-Glo luminescence, IC50, dose response (AID 1117334); assay type: functional; details: COLO 320
[9] = cytotoxicity toward HCT116 cells – cell-based, CellTiter-Glo luminescence, IC50, dose response (AID 1117332); assay type: functional; details: HCT-116
[10] = HeLa 2N DNA content increase, dose response, cell-based, IC50 (AID 1117349); assay type: functional
[11] = HeLa 4N DNA content increase, dose response, cell-based, IC50 (AID 1117351); assay type: functional
[12] = SNU-C1 cell viability reduction, dose response, CellTiter-Glo luminescence (AID 1117323); assay type: functional, cell-based
[13] = IGROV1 ovarian cancer cell cytotoxicity, dose response, PAX8 inhibitor project, plate reader, dry powder samples (AID 743043); assay type: functional, cell-based; details: IGROV-1
[14] = NIH:OVCAR-3 ovarian cancer cell cytotoxicity, dose response, PAX8 inhibitor project, plate reader, dry powder samples (AID 743044); assay type: functional, cell-based
Paired box protein Pax-8 = Paired box protein Pax-8 (Homo sapiens, UniProt Q06710); assay: inhibitors of PAX8-driven TPO luciferase reporter, dose response, RMG-I cells, cherry-pick (AID 687027); assay type: functional, cell-based;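 also: luciferase reporter driven by Pax8 target thyroperoxidase promoter measured by SteadyGlo luminescence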
Sequence of Paired box protein Pax-8 (Q06710 whole entry): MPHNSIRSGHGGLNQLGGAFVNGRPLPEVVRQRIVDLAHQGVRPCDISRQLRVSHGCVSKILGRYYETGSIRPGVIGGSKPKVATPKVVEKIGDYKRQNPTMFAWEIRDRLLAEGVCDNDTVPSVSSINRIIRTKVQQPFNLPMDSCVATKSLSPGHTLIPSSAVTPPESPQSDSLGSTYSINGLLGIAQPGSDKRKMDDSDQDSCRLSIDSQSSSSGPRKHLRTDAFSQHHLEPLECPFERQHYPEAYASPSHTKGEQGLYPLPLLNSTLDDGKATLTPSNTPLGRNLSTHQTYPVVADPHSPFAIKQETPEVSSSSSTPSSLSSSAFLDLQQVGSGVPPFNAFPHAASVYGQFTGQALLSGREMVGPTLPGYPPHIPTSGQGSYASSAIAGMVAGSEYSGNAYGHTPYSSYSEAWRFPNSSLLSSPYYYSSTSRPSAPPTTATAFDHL

[15] = non-specific cell cytotoxicity, dose response, cytotoxicity control for PAX8 inhibitor project, plate reader, dry powder samples (AID 743021); assay type: functional, cell-based
[16] = molecular target: Muscarinic acetylcholine receptor M5 (Homo sapiens, UniProt P08912); assay: M5 receptor positive allosteric modulators, dose response, cell-based, concentration-response curve (AID 651878); assay type: functional
Sequence of Muscarinic acetylcholine receptor M5 (P08912 whole entry): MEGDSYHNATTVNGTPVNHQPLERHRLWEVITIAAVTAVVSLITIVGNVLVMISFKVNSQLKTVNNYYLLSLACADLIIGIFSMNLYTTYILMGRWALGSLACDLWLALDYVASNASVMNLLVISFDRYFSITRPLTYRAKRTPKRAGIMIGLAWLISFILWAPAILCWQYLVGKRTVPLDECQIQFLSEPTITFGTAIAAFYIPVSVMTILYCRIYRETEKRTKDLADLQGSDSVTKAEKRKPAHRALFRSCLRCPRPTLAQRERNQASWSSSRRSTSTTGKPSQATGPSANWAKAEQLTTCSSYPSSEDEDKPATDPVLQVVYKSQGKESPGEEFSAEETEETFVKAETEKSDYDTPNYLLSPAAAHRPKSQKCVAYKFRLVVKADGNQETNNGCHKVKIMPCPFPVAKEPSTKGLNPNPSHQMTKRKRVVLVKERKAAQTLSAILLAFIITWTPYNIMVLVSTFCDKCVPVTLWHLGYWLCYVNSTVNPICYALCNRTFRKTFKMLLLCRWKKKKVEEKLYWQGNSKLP

Which AC50 [1] does the source give for C/C=C1\NC(=O)[C@H](C)NC(=O)[C@@H](NC(=O)[C@H](Cc2ccc(O)cc2)NC(=O)[C@@H](NC(=O)/C(C)=C/C)C(C)C)[C@@H](C)OC(=O)[C@H](CCCc2ccc(O)cc2)NC(=O)[C@@H](CCC(=O)O)NC1=O (Tigloyl-VYTA[Dhb][dE][bishTyr]; ester 3-C) here?
The AC50 was 12.6 µM (active).

For Cc1sc(NC(=O)CSc2nnc(-c3ccccc3)o2)c(C#N)c1C, which IC50 [2] is on record?
The IC50 was 44.8 µM (not active).

Which IC50 (Genome polyprotein) does the source give for Cc1sccc1C1C(C#N)=C(N)SC(N)=C1C#N here?
Its IC50 is > 49.8 µM (not active).

With O=C(c1cc(O)c(O)c(O)c1)c1ccc(O)c(O)c1O [EXIFONE] as the molecule, how does the IC50 [3] read?
The IC50 was 0.0691 µM (active).

And the IC50 [4]?
The IC50 was 9.45 µM (inactive).

And the IC50 [5]?
The IC50 was 11.9 µM (inactive).

And the IC50 [6]?
Its IC50 is 0.192 µM (active).

What about the IC50 [7] of the same molecule?
Its IC50 is 9.95 µM (inactive).

What about the IC50 [8] of the same molecule?
The IC50 was 9.38 µM (inactive).

What about the IC50 [9] of the same molecule?
The IC50 was 16.3 µM (inactive).

What about the IC50 [10] of the same molecule?
The IC50 was > 10 µM (inactive).

And the IC50 [11]?
Its IC50 is > 10 µM (inactive).

What about the IC50 [12] of the same molecule?
The IC50 was 12.8 µM (inactive).

For C[C@@H]1CN([C@@H](C)CO)C(=O)Cc2cc(NS(=O)(=O)c3ccc(Cl)cc3)ccc2O[C@@H]1CN(C)CC1CCCCC1, which AC50 [13] is on record?
Its AC50 is 46.2 µM (active).

And the AC50 [14]?
The AC50 was 21.2 µM (active).

What about the AC50 (Paired box protein Pax-8) of the same molecule?
Its AC50 is 11.7 µM (active).

What about the AC50 [15] of the same molecule?
The AC50 was 41.9 µM (active).

With O=C1C(=O)N(CCCOc2ccccc2)c2ccc(OC(F)(F)F)cc21 as the molecule, how does the EC50 [16] read?
The EC50 was 1.97 µM (active).
